Laboratory results taken from article PMC4756352, “Atypical natural killer T-cell receptor recognition of CD1d–lipid antigens” (Nature Communications, 2016).

Legend:
human CD1d [1] = biological target: T1, human CD1d (Homo sapiens, UniProt P15813); experiment: SPR, lipid-loaded CD1d immobilised, TCR injected; settings: lipid loaded at 3-6 fold molar excess overnight; binding seen through TCR recognition; HBS-T pH 7.4, 25 °C
T1 construct: soluble CD1d with C-terminal BirA biotin ligase tag and B2M, baculovirus/High Five insect cells, IMAC and gel filtration; biotinylated; with Beta-2-microglobulin

human CD1d [2] = biological target: T1, human CD1d; experiment: lipid-loaded CD1d tetramer staining of TCR-transduced Jurkat cells; type: cell-based; settings: binding seen through TCR recognition (9B1, 9B2 lines)

T1 sequence (P15813 20-295 limits assumed): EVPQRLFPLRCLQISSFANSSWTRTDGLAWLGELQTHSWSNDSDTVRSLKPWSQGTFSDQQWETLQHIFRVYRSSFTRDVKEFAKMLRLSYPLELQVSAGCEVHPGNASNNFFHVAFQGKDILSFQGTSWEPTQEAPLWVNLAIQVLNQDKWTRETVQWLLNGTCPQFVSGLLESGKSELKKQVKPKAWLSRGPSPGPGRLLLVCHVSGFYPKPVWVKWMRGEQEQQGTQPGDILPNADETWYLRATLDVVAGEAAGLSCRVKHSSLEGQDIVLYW
T1 sequence (P61769 21-119 partner): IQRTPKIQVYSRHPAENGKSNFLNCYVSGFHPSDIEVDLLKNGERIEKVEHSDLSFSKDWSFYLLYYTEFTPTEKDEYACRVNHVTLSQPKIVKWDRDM

SMILES	SPR, lipid-loaded CD1d immobilised, TCR injected (human CD1d [1])	lipid-loaded CD1d tetramer staining of TCR-transduced Jurkat cells (human CD1d [2])
CCCCCCCCCCCCCCCCCCCCCCCCCC(=O)N[C@@H](CO[C@H]1O[C@H](CO)C[C@H](O)[C@H]1O)[C@H](O)CCCCCCCCCCCCCCC	no negative impact of this analogue on NKT15 or 9B2 TCR binding	–
CCCCCCCCCCCCCCCCCCCCCCCCCC(=O)N[C@@H](CO[C@H]1O[C@H](CO)[C@H](O)C[C@H]1O)[C@H](O)CCCCCCCCCCCCCCC [3′-deoxy-α-GalCer]	affinity of the 9C1 and 9B2 TCRs towards CD1d-3′-deoxy-α-GalCer	–
CCCCCCCCCCCCCCCCCCCCCCCCCC(=O)N[C@@H](CO[C@H]1O[C@H](CO)[C@@H](O)[C@H](O)[C@H]1O)[C@H](O)[C@H](O)CCCCCCCCCCCCCC [α-GlcCer (C26:0)]	yet was well-tolerated by NKT15 TCR	–
CCCCCCCCCCCCC/C=C/[C@@H](O)[C@H](CO[C@@H]1O[C@H](CO)[C@H](O)[C@H](O)[C@H]1O)NC(=O)CCCCCCCCCCC [β-GalCer (C12)]	–	These 9B1 and 9B2 TCRs also reacted to a lesser extent with β-GalCer
CCCCCCCC/C=C\CCCCCCCCCCCCCC(=O)N[C@@H](CO[C@@H]1O[C@H](CO)[C@@H](O)[C@H](O)[C@H]1O)[C@H](O)/C=C/CCCCCCCCCCCCC [β-GlcCer (C24:1)]	–	we detected clear reactivity of Jurkat.9B1 and Jurkat.9B2 cell lines to β-GlcCer
